Each structure is given as a SMILES string. Converted amounts (≈) assume the structure as drawn.

Data on five compounds can be found in paper PMC10497682, “Synthesis and cytotoxicity evaluation of novel 1,8-acridinedione derivatives bearing phthalimide moiety as potential antitumor agents” (Scientific Reports, 2023).

Holding throughout (format): cell-based
Assay [1] concerns breast cancer cells (MDA-MB-231). The assay can be described thus: MTT cytotoxicity assay, MDA-MB-231. The procedure:
(§1) The cell lines were obtained from American Type Culture Collection (ATCC). With the usage of the Thiazolyl Blue Tetrazolium Bromide (MTT) method, various concentrations of the compounds (8c, 8f, 8h, 8i, and 8L) were evaluated for their cytotoxicity against the HSF, H460, A431, A549, and MDA-MB-231 cell lines. In brief HSF, H460, A431, A549 and MDA-MB-231 cell lines cells (10 × 10^3) were cultured in 96 well plate for overnight at 37 °C, 5% CO2 and 88% humidity. The total volume of used DMEM supplemented medium and the synthesized compounds supernatant was 200 µL with final concentrations of 25, 50, 100, 150 and 200 µg/ml. The plate was incubated at 37 °C, 5% CO2 for 48 h. After incubation, debris and dead cells were removed by washing three times with fresh medium. […] 200 µL dimethyl sulfoxide (DMSO) was added to each well and shook again for 5 min at 150 rpm, and then the viability of the cells was calculated by measuring the optical density at 630 nm subtracted from optical density at 570 nm. The relative cell viability (%) was determined as the given formula: Therelativecellviability%=ODS/ODC×100 whereas ODS is the mean optical density of sample, ODC is the mean OD of control group. […] Tumor-selectivity index (TS value) was determined by dividing the mean IC50 against normal cells by the mean IC50 against tumor cells. […]
(In general: Formazan colour is commonly taken as a measure of viable cells.)

Assay [2] deals with MDA-MB-231 cells. The assay can be described thus: Morphological modifications under phase-contrast microscope, MDA-MB-231. The settings on record: IC50 dose, 48 h, vs untreated control. On the procedure: (§2) The present study aimed to investigate the in vitro effects of five synthetic compounds (8c, 8f, 8h, 8i, and 8L) on the morphological modifications of four different cancer cell lines (A431, A549, H460, and MDA-MB-231) compared with untreated control cells (Fig. 5). The cells were treated with the compounds at IC50 doses for 48 h, and the morphological changes were observed under a phase-contrast microscope.
(§3) All cells were treated with compounds (8c, 8f, 8h, 8i and 8L) at IC50 doses for 48 h as compared to untreated control cells.
(§4) The cell lines were obtained from American Type Culture Collection (ATCC). With the usage of the Thiazolyl Blue Tetrazolium Bromide (MTT) method, various concentrations of the compounds (8c, 8f, 8h, 8i, and 8L) were evaluated for their cytotoxicity against the HSF, H460, A431, A549, and MDA-MB-231 cell lines. […] 200 µL dimethyl sulfoxide (DMSO) was added to each well and shook again for 5 min at 150 rpm, and then the viability of the cells was calculated by measuring the optical density at 630 nm subtracted from optical density at 570 nm. The relative cell viability (%) was determined as the given formula: Therelativecellviability%=ODS/ODC×100 whereas ODS is the mean optical density of sample, ODC is the mean OD of control group. […]

Assay [3] relates to TOP2B. Nature of the assay: qRT-PCR mRNA expression of TOP2B in A431 cells. The settings on record: IC50 concentration, 2 days, fold vs untreated control. On the procedure:
(§5) In this study, the impact of potent antitumor compounds (8c, 8f, 8h, 8i, and 8L) on the expression levels of four tumor regulating genes, namely Topoisomerase II beta (TOP2B), mitogen-activated protein kinase (MAP K) (p38), tumor protein interacted with the mouse double minute 2 homolog (p53), and Epidermal growth factor receptor (EGFR), was investigated in skin cancer cells (A431). Evaluation the relative changes in mRNA expression levels of four key genes by performing quantitative real-time PCR (qRT-PCR) before and after treatment for 2 days with IC50 concentrations of compounds (8c, 8f, 8h, 8i, and 8L). Total RNA was extracted from the cells using the Gene JET RNA Purification Kit (Thermo Scientific, USA), followed by cDNA synthesis using the cDNA Synthesis Kit (Thermo Scientific, USA) protocol. SYBR green kit and specific primers (Forward/Reverse) were used for qRT-PCR: 5′-[…]-3’/5’-[…]-3′ for p38, 5′-[…]-3′/5′-[…]-3′ for p53, 5’-[…]-3’/5’-[…]-3’ for TOP2B, and 5’-[…]-3’/5’-[…]-3’ for EGFR. The expression levels of the tested genes were determined by using the 2^−ΔΔCT equation to assess any changes in upregulation and/or downregulation of gene expression.
For orientation: In qPCR the cycle at which signal appears reflects the starting amount.

In assay [4] the test system is lung cancer cells (H460). Nature of the assay: MTT cytotoxicity assay, H460. As to conditions: for selectivity index (SI): mean IC50 against normal cells (HSF) divided by IC50 against H460. On the procedure:
(§6) The cell lines were obtained from American Type Culture Collection (ATCC). With the usage of the Thiazolyl Blue Tetrazolium Bromide (MTT) method, various concentrations of the compounds (8c, 8f, 8h, 8i, and 8L) were evaluated for their cytotoxicity against the HSF, H460, A431, A549, and MDA-MB-231 cell lines. In brief HSF, H460, A431, A549 and MDA-MB-231 cell lines cells (10 × 10^3) were cultured in 96 well plate for overnight at 37 °C, 5% CO2 and 88% humidity. The total volume of used DMEM supplemented medium and the synthesized compounds supernatant was 200 µL with final concentrations of 25, 50, 100, 150 and 200 µg/ml. The plate was incubated at 37 °C, 5% CO2 for 48 h. After incubation, debris and dead cells were removed by washing three times with fresh medium. […] of MTT solution (5 mg/ml of MTT in PBS buffer) was added to each well and shook for 5 min at 150 rpm to thoroughly mix the MTT into the media. The cells were incubated at 37 °C and 5% CO2 for 3–5 h to metabolize MTT by viable cells. 200 µL dimethyl sulfoxide (DMSO) was added to each well and shook again for 5 min at 150 rpm, and then the viability of the cells was calculated by measuring the optical density at 630 nm subtracted from optical density at 570 nm. The relative cell viability (%) was determined as the given formula: Therelativecellviability%=ODS/ODC×100 whereas ODS is the mean optical density of sample, ODC is the mean OD of control group. […] Tumor-selectivity index (TS value) was determined by dividing the mean IC50 against normal cells by the mean IC50 against tumor cells. Thus obtained TS values seem to reflect the in vivo antitumor activity even though these cells were different types of cells (epithelial oral squamous cell carcinoma cell lines versus mesenchymal normal oral cells).

The subject of assay [5] is H460 cells. The assay can be described thus: Morphological modifications under phase-contrast microscope, H460. The settings on record: IC50 dose, 48 h, vs untreated control. The procedure: as §2, §3, §4
Assay [6] deals with p53. Nature of the assay: qRT-PCR mRNA expression of p53 in A431 cells. The settings on record: IC50 concentration, 2 days, fold vs untreated control. On the procedure:
as §5

Assay [7] relates to A431 cells. The assay can be described thus: Morphological modifications under phase-contrast microscope, A431. The settings on record: IC50 dose, 48 h, vs untreated control. The procedure:
as §2, §3, §4

The subject of assay [8] is A549 cells. Nature of the assay: Morphological modifications under phase-contrast microscope, A549. The settings on record: IC50 dose, 48 h, vs untreated control. On the procedure:
as §2, §3, §4

Assay [9] concerns skin cancer cells (A431). Nature of the assay: MTT cytotoxicity assay, A431. The settings on record: for selectivity index (SI): mean IC50 against normal cells (HSF) divided by IC50 against A431. On the procedure: as §6
The subject of assay [10] is EGFR. Nature of the assay: qRT-PCR mRNA expression of EGFR in A431 cells. As to conditions: IC50 concentration, 2 days, fold vs untreated control. The procedure:
as §5

Assay [11] concerns p38. Nature of the assay: qRT-PCR mRNA expression of p38 in A431 cells. The settings on record: IC50 concentration, 2 days, fold vs untreated control. On the procedure: as §5
Assay [12] relates to lung cancer cells (A549). The assay can be described thus: MTT cytotoxicity assay, A549. The procedure: as §1

On to `CC1(C)CC(=O)C2=C(C1)N(CCOC(=O)CN1C(=O)c3ccccc3C1=O)C1=C(C(=O)CC(C)(C)C1)C2c1ccc2c(c1)OCO2` [Compound 8L, 2-(9-(benzo[d][1,3]dioxol-5-yl)-3,3,6,6-tetramethyl-1,8-dioxo-2,3,4,5,6,7,8,9-octahydroacridin-10(1H)-yl)ethyl 2-(1,3-dioxoisoindolin-2-yl)acetate], for which the IC50 in assay [1] (Homo sapiens, MDA-MB-231 cells, MTT, 48 h, mean ± SEM) stood at 27.7 ± 2.7 µg/mL (≈ 44.3 µM). For the same compound, the “selectivity index (SI)” value in assay [1] (mean IC50 against normal cells (HSF) divided by IC50 against MDA-MB-231) worked out at 4.4. In [2], the morphological modifications result is “significant cell damage and alterations in cell morphology”.

With `CC1(C)CC(=O)C2=C(C1)N(CCOC(=O)CN1C(=O)c3ccccc3C1=O)C1=C(C(=O)CC(C)(C)C1)C2c1ccc(-c2ccccc2)cc1` [Compound 8f, 2-(9-([1,1'-biphenyl]-4-yl)-3,3,6,6-tetramethyl-1,8-dioxo-2,3,4,5,6,7,8,9-octahydroacridin-10(1H)-yl) ethyl 2-(1,3-dioxoisoindolin-2-yl) acetate], the “relative change in mRNA expression level of TOP2B” value in assay [3] is “lowest relative change”. Further, the IC50 in assay [4] (Homo sapiens, NCI-H460, H460 cells, MTT, 48 h, mean ± SEM) is 24.6 ± 3.4 µg/mL; in [9] (Homo sapiens, A-431, A431 cells, MTT, 48 h, mean ± SEM), 11.9 ± 3.3 µg/mL. Further, the “selectivity index (SI)” value turned out to be 7.7 in assay [4] and 15.9 in assay [9]. In addition, the morphological modifications result in [5] was “noticeable cell damage and alterations in the morphology”; in assay [2] it was “significant cell damage and alterations in cell morphology”; in assay [7] it was “significant cell damage and alteration in the morphology”; in assay [8], “significant cell damage and alterations in the morphology”. For the same compound, the “relative change in mRNA expression level of p53” value in assay [6] was “highest relative change”. The “relative change in mRNA expression level of EGFR” value in assay [10] was “lowest relative change”. Besides, in assay [11], the “relative change in mRNA expression level of p38” value is “highest relative change”.

In the case of `CC1(C)CC(=O)C2=C(C1)N(CCOC(=O)CN1C(=O)c3ccccc3C1=O)C1=C(C(=O)CC(C)(C)C1)C2c1ccc(F)cc1` [Compound 8c, 2-(9-(4-fluorophenyl)-3,3,6,6-tetramethyl-1,8-dioxo-2,3,4,5,6,7,8,9-octahydroacridin-10(1H)-yl) ethyl 2-(1,3-dioxoisoindolin-2-yl) acetate], the morphological modifications entry in [5] is “noticeable cell damage and alterations in the morphology”; in assay [8], “significant cell damage and alterations in the morphology”.

For the compound `COc1ccc(C2C3=C(CC(C)(C)CC3=O)N(CCOC(=O)CN3C(=O)c4ccccc4C3=O)C3=C2C(=O)CC(C)(C)C3)cc1OC` [Compound 8h, 2-(9-(3,4-dimethoxyphenyl)-3,3,6,6-tetramethyl-1,8-dioxo-2,3,4,5,6,7,8,9-octahydroacridin-10(1H)-yl) ethyl 2-(1,3-dioxoisoindolin-2-yl) acetate], in [3], the “relative change in mRNA expression level of TOP2B” value is recorded as “lowest relative change”. The “selectivity index (SI)” value in assay [4] is 3.5; in assay [9], 4.5. Moreover, in assay [10], the “relative change in mRNA expression level of EGFR” value is “lowest relative change”.

For the compound `COc1ccc(C2C3=C(CC(C)(C)CC3=O)N(CCOC(=O)CN3C(=O)c4ccccc4C3=O)C3=C2C(=O)CC(C)(C)C3)cc1` [Compound 8i, 2-(9-(4-methoxyphenyl)-3,3,6,6-tetramethyl-1,8-dioxo-2,3,4,5,6,7,8,9-octahydroacridin-10(1H)-yl) ethyl 2-(1,3-dioxoisoindolin-2-yl) acetate], it took 37.4 ± 4.5 µg/mL to reach half-maximal inhibition in assay [12] (Homo sapiens, A549 cells, MTT, 48 h, mean ± SEM) (IC50). In assay [12] (mean IC50 against normal cells (HSF) divided by IC50 against A549), the “selectivity index (SI)” value amounted to 4.0. For the same compound, in assay [7], the morphological modifications result is “significant cell damage and alteration in the morphology”.

The IC50 is the point on the concentration scale where inhibition reaches its midpoint. Higher therefore signals weaker potency in that assay.
